The values that follow come from patent US20090270361A1, “Substituted pyrazole derivatives and use thereof” (Takeda Pharmaceutical Company Limited, priority 2008, published 2009).

Test [1] relates to Human prostate cancer cells LNCaP-FGC. Briefly: Prostate specific antigen (PSA) production inhibition test in prostate cancer cells. The test is classed as cell-based. The note with it: for inhibition at 1 µM: Homo sapiens, 72 h, read-out: PSA production inhibitory rate (%).
Test [2] concerns the target T1, wild type androgen receptor (AR) (Homo sapiens, UniProt P10275).
T1 sequence (P10275 1-920): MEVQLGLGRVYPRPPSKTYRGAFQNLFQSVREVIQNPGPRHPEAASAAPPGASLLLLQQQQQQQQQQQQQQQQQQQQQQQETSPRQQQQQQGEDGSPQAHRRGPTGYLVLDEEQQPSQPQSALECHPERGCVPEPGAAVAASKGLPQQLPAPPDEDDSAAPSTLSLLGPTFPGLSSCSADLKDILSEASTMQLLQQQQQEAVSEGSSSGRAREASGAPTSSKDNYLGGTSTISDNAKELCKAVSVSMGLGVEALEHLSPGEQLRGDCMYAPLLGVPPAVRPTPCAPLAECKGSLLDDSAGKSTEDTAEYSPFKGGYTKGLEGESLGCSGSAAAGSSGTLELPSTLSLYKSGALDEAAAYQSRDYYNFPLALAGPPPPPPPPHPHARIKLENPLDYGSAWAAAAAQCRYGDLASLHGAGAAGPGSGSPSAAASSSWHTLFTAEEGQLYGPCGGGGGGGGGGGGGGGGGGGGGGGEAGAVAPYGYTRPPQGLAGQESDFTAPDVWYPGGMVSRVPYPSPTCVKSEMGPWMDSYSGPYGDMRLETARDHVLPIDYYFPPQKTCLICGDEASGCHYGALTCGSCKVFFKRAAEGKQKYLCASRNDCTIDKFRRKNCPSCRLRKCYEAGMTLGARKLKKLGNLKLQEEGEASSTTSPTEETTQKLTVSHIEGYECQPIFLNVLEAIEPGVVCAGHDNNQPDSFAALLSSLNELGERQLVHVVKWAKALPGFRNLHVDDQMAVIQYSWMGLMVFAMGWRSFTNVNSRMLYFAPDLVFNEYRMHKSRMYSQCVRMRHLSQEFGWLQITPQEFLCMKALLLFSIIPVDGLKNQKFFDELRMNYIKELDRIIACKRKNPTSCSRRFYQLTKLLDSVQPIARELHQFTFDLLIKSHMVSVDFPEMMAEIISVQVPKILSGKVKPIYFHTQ
The experiment in a line: AR-binding inhibition test (wild type), radio-labeled Mibolerone displacement. As to conditions: read-out: inhibition rate, wild type. On the procedure: (§1) AR-Binding Inhibition Test (Wild Type and LNCaP Type)
(§2) To a solution of wild type or LNCaP type mutant androgen receptor (AR) was added 3 nM radio-labeled Mibolerone and final concentration 1 μM of the compound. The mixture was incubated at 4° C. for 3 hours, and B (Bound) and F (Free) Mibolerones were separated by the dextran/charcoal method. The label count of B was measured and the inhibition rate of the compound was calculated.

The target of test [3] is T2, mutant AR (W741C) (Homo sapiens, UniProt P10275, W742C).
T2 construct: expressed in transfected cells; host or cells: Cos-7
T2 sequence (P10275 1-920 W742C): T1 sequence (P10275 1-920) with W742C
The experiment in a line: AR transcription inhibition test (luciferase reporter in Cos-7 cells). In kind it is cell-based. As to conditions: compound 1 μM; DHT 0.1 μM; Cos-7 cells cotransfected with mutant AR (W741C) and androgen responsive luciferase reporter; 24 hr; relative to control (0.1 μM DHT); read-out: AR transcription inhibitory rate (%). On the procedure:
AR Transcription Inhibition Test
Cos-7 cells (5,000,000 cells) were inoculated to a flask, and incubated in a culture medium (DMEM +10% Dextran Charcoal (DCC)-Fetal Bovine Serum (FBS) and 2 mM glutamine) for 24 hours. Then, a vector DNA harboring mutant AR (W741C) and a vector DNA containing a luciferase gene bound at the downstream of an androgen responsive promoter were cotransfected by a liposome method. After 4 hr, the medium was changed and, after culture for 3 hr, DHT (dihydrotestosterone) at the final concentration of 0.1 μM and the compound at the final concentration of 1 μM were added. After further culture for 24 hr, the luciferase activity was measured, and the AR transcription inhibitory activity of the compound was examined.
In general terms: A reporter such as luciferase makes a cellular process visible.

For test [4], the target named is T3, LNCaP type mutant androgen receptor (AR) (Homo sapiens, UniProt P10275, T878A).
T3 sequence (P10275 1-920 T878A): T1 sequence (P10275 1-920) with T878A
Briefly: AR-binding inhibition test (LNCaP type), radio-labeled Mibolerone displacement. As to conditions: read-out: inhibition rate, LNCaP type. The procedure:
as §1, §2

[5] abbreviates: compound final concentration 1 μM, 3 nM radio-labeled Mibolerone, 4° C., 3 hours, dextran/charcoal method.

The structures appear in SMILES notation. Positions count from the first letter of the chain named. Where two headings read alike, the source gives them in different places.

As to `Cc1nn(-c2ccc(C#N)c(Cl)c2)c(C)c1Cc1ccc(C(=O)NC(C)(C)C)cc1` [Example 351, N-tert-butyl-4-{[1-(3-chloro-4-cyanophenyl)-3,5-dimethyl-1H-pyrazol-4-yl]methyl}benzamide], the inhibition at 1 µM in test [1] worked out at 109%.
Turning to `Cc1nn(-c2ccc(C#N)c(Cl)c2)c(C)c1Oc1ccc(C(=O)N2CCS(=O)(=O)CC2)cc1` [Example 367, 2-chloro-4-(4-{4-[(1,1-dioxidethiomorpholin-4-yl)carbonyl]phenoxy}-3,5-dimethyl-1H-pyrazol-1-yl)benzonitrile], the inhibition at 1 µM in test [1] (compound 1 μM, testosterone final concentration 0.1 ng/m, PSA in culture supernatant after 3 days by ELISA, testosterone non-addition group = 100%, testosterone addition group = 0%) turned out to be 109%; in test [2] (setting [5]), 49%; in test [3], 24%; in test [4] (setting [5]) it was 77%.
Take `Cc1nn(-c2ccc(C#N)c(Cl)c2)c(C)c1Cc1ccc(C(=O)N2CC[C@H](O)C2)cc1` [Example 332, 2-chloro-4-[4-(4-{[(3S)-3-hydroxypyrrolidin-1-yl]carbonyl}benzyl)-3,5-dimethyl-1H-pyrazol-1-yl]benzonitrile]: the inhibition at 1 µM in test [1] was 84%; in test [2], 72%; in test [3], 22%; in test [4], 78%.
`Cc1nn(-c2ccc(C#N)c(Cl)c2)c(C)c1Cc1ccc(C(=O)N2CCC(O)CC2)cc1` [Example 355, 2-chloro-4-(4-{4-[(4-hydroxypiperidin-1-yl)carbonyl]benzyl}-3,5-dimethyl-1H-pyrazol-1-yl)benzonitrile]: the inhibition at 1 µM is 117% in test [1], 47% in test [2], 23% in test [3] and 51% in test [4].
Turning to `Cc1nn(-c2ccc(C#N)c(Cl)c2)c(C)c1Cc1ccc(C(=O)N(C)CCO)cc1` [Example 296, 4-{[1-(3-chloro-4-cyanophenyl)-3,5-dimethyl-1H-pyrazol-4-yl]methyl}-N-(2-hydroxyethyl)-N-methylbenzamide], the inhibition at 1 µM in test [1] turned out to be 79%; in test [2] it was 52%; in test [3] it was 39%; in test [4] it was 64%.
For `Cc1nn(-c2ccc(C#N)c(Cl)c2)c(C)c1Cc1ccc(-c2nnc(C(N)=O)o2)cc1` [Example 350, 5-(4-{[1-(3-chloro-4-cyanophenyl)-3,5-dimethyl-1H-pyrazol-4-yl]methyl}phenyl)-1,3,4-oxadiazole-2-carboxamide], in that order: 101%, 87%, 93% and 92%.
Taken in the same sequence, the figures for `Cc1nn(-c2ccc(C#N)c(Cl)c2)c(C)c1Cc1ccc(C(=O)NCC(O)CO)cc1` (racemic) [Example 321, (±)-4-{[1-(3-chloro-4-cyanophenyl)-3,5-dimethyl-1H-pyrazol-4-yl]methyl}-N-(2,3-dihydroxypropyl)benzamide] were 91%, 78%, 38% and 84%.
Consider `Cc1nn(-c2ccc(C#N)c(Cl)c2)c(C)c1Cc1ccc(C(=O)NCC(C)(C)O)cc1` [Example 356, 4-{[1-(3-chloro-4-cyanophenyl)-3,5-dimethyl-1H-pyrazol-4-yl]methyl}-N-(2-hydroxy-2-methylpropyl)benzamide], for which the inhibition at 1 µM in test [1] stood at 98%.
Still for that read-out and setting: the value for `Cc1nn(-c2ccc(C#N)c(Cl)c2)c(C)c1Oc1ccc(C(=O)N2CCOCC2)cc1` [Example 357, 2-chloro-4-{3,5-dimethyl-4-[4-(morpholin-4-ylcarbonyl)phenoxy]-1H-pyrazol-1-yl}benzonitrile] was 100%.
For the compound `CC(O)(CS(=O)(=O)c1ccc(F)cc1)C(=O)Nc1ccc(C#N)c(C(F)(F)F)c1` (centres unmarked) [bicartamide, reference compound], the “PSA production inhibitory rate (%)” value in test [1] (1 µM) was 75%.
Regarding `Cc1nn(-c2ccc(C#N)c(Cl)c2)c(C)c1Oc1ccc(NC(=O)C(C)(C)C)cn1` [Example 455, N-(6-{[1-(3-chloro-4-cyanophenyl)-3,5-dimethyl-1H-pyrazol-4-yl]oxy}pyridin-3-yl)-2,2-dimethylpropanamide], in test [1], the inhibition at 1 µM amounted to 108%.
